The target in this assay is T1, DNA polymerase theta [1-894] (UniProt O75417).
T1 construct: 1-894
As to the kind of experiment: Biochemical Pol Theta (1-894) ATPase IC50 Assay. The procedure: The inhibition activities testing for the compound disclosed herein were carried out at room temperature in assay buffer containing 40 mM Tris pH 7.5, 20 mM MgCl2, 1 mM DTT, 0.01% BSA and 0.05% Tween-20. […] After 1 hour reaction, 5 μL ADP-Glo reagent (Promga V9102) was added and incubated for 40 minutes. 10 μL Kinase Detection reagent was added and incubated for 40 minutes. Luminescence was measured on a microplate reader (PHERAstar FSX, BMG labtech). The IC50 values were calculated based on inhibition of enzyme activity in the presence of increasing concentrations of compounds.

Here are results for two compounds from BindingDB's records for patent US20250026766 (Beigene, 2025).

T1 sequence (O75417 1-894): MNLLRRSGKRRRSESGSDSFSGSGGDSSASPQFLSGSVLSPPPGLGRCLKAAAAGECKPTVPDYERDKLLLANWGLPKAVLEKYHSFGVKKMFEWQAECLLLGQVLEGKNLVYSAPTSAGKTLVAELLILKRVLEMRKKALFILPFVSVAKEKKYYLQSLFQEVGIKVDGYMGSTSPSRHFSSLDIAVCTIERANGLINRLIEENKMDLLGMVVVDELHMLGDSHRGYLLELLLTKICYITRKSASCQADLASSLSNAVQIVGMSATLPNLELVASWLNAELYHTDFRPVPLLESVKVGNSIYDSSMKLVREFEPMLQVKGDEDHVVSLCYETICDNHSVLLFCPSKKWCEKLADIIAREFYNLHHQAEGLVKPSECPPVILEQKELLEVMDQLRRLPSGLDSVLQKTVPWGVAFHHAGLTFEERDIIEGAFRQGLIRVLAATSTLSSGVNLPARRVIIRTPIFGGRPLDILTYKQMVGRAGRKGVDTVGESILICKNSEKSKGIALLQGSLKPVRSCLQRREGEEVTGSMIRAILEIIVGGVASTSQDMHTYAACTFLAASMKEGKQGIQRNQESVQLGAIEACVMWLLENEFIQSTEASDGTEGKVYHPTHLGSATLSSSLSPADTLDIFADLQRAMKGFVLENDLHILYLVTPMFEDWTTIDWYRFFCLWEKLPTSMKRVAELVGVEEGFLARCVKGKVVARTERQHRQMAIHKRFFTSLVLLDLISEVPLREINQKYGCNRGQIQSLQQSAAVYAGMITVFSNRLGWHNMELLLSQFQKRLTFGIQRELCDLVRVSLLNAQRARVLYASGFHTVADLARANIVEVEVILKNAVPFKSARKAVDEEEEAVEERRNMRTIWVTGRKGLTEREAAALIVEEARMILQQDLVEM

The term IC50 denotes the concentration at which inhibition is half-maximal. A high value points to weaker potency. In turn, `COc1ccccc1-c1cnncc1C(=O)Nc1nc2ccc(-c3ccc(Cl)cc3OC(C)C)nc2s1` [US20250026766, Example 143] yielded an IC50 of 22 nM. The result for `Cc1ccc(-c2ccc3nc(NC(=O)c4ccc(C#N)nc4N4CCOCC4)sc3n2)cc1` [US20250026766, Example 4] reads 1560 nM.
